Reference: patent USRE38132E1, “Phenylpyrrolidines, phenylimidazolidines,3-phenyl-1,3-oxizolidines and 3-phenyl-1,3-thiazolidines and their use in the treatment of inflammatory disease” (Boehringer Ingelheim Pharmaceuticals, Inc., priority 1997, dated 2003)

Columns and labels:
[1] = system: cell bound fibronectin receptor (VLA4) with fibronectin, SKW3 cells; assay: Inhibition of SKW3 cell binding to fibronectin (selectivity counter-assay); type: cell-based, human; conditions: for IC50: Homo sapiens, SKW3, values marked c: no inhibition observed up to highest dose, read-out: Assay to Detect SKW3 Cells Binding to FIBRONECTIN IC50; for Assay to Detect SKW3 Cells Binding to FIBRONECTIN IC50: values marked c: no inhibition observed up to highest dose
From the text: (§1) Assay to Determine Inhibition of SKW3 cell binding to ICAM-1 vs. Binding to Fibronectin
(§2) This assay is used to test the selective ability of a test compound to antagonize the interaction of a cell bound form of LFA-1 with ICAM-1. The assay uses a human T cell line, SKW3 cells which express CD18, CD11a and other integrins not related to CD18, CD11a and which can be “activated” by phorbol esters. Phorbol esters enhance the affinity of CD18, CD11a for ICAM-1.
(§3) This same lymphocyte line, SKW3, also adheres to fibronectin in the presence of phorbol esters. This adhesion is mediated by membrane proteins independent of the LFA-1/ICAM-1 interaction. The SKW3 cells express another integrin, VLA4, which is the receptor for fibronectin. Therefore, as a preliminary indication of the selectivity of a test compounds to interfere with Leukointegrin/CAM interactions but not other integrin-ligand binding events, a compound can be tested for its ability to antagonize cell bound fibronectin receptor in its interaction with purified fibronectin. Compounds that inhibit this fibronectin adhesion are not specific antagonists of the CD18, CD11a/ICAM-1 binding.
(§4) Description of Assay Protocol:
(§5) Ninety-six well plates are coated with either sICAM-1(40 μg/mL) or fibronectin (100 μg/mL) in Diluting buffer for 1 h at room temperature. Added to the wells are 100 μL of the appropriately diluted test compound or 100 μL of RPMI with 15% fetal bovine serum as a control. SKW3 cells, which express CD18, CD11a and VLA4 (Dustin, M.; et al., J. Exp. Med. 1987, 165, 672-692) are washed and suspended to a concentration of 10^6 cells/mL in RPMI with 15% fetal bovine serum. Immediately before adding the cells to the wells, cells are stimulated with the phorbol ester 12-myristate 13-acetate (PMA) for a final concentration of […]. 100 μL of cells are then added to the wells resulting in a final concentration of […]. The plates are incubated for 2 h at 37° C. Unbound or loosely bound cells are gently washed away with RPMI.
(§6) Data are reported as the concentration or concentration range (in μM) at which 50% of binding is inhibited.

[2] = system: LFA-1 dependent aggregation of JY cells; assay: JY cell homotypic aggregation assay (PMA-stimulated); type: cell-based, human; conditions: Homo sapiens
From the text: This aggregation can be enhanced by the addition of phorbol esters. […] Thus, the extent of LFA-1-dependent binding may be determined by assessing the extent of spontaneous or phorbol ester-dependent aggregate formation.
An agent which interferes with LFA-1 -dependent aggregation can be identified through the use of an assay capable of determining whether the agent interferes with either spontaneous, or phorbol ester-dependent aggregation of Epstein-Barr virus transformed cells. It is preferable to employ cells of the JY cell line (Terhost, L; et aL, Proc. Natl. Acad. Sci. USA, 1976, 73, 910) for the homotypic aggregation assay. This assay, capable of measuring LFA-1 dependent aggregation, may be employed to identify agents which act as antagonists to the LFA-1 dependent aggregation. Such agents may act by impairing the ability of either LFA-1 or ICAM-1 to mediate aggregation. Thus, agents may be examined to directly determine if they are antagonists of LFA-1 aggregation.
as §4
JY cells are cultured in RPMI 1640 culture medium supplemented with 10% fetal calf serum and 50 μg/mL gentamycin. The cells are cultured at 37° C. in an atmosphere of 5% CO2 at a relative humidity of 95%. JY cells used in this assay are washed two times with RPMI 1640 medium containing 5 mM HEPES buffer and resuspended to a concentration of 2·10^6 cells/mL. Added to flat-bottomed, 96-well microtiter plates are 50 μL of test compound diluted in complete medium, 50 μL of complete medium with or without purified monoclonal antibodies (negative and positive controls for inhibition, respectively), 50 μL of complete medium containing 200 ng/mL of the phorbol ester phorbol myristate acetate (PMA) and 100 μL of cells at a concentration of 2·10^6 cells/mL in complete medium. This yields a final concentration of […] PMA and 2·10^5 cells/well. Cells are allowed to settle spontaneously, and the degree of aggregation is scored at various time points. […] This procedure has been described by Rothlein, R. R.; et al., J. Exp. Med. 1986, 163, 1132-1149. This paper also reported that antibody to LFA-1 is capable of inhibiting the formation of aggregates.
as §6

[3] = system: SKW3 cells
[4] = system: cell bound form of LFA-1 (CD18, CD11a) with ICAM-1, SKW3 cells; assay: Inhibition of SKW3 cell binding to ICAM-1 (PMA-stimulated); type: cell-based, human; conditions: Homo sapiens, SKW3, values marked c: no inhibition observed up to highest dose; read-out: Assay to Detect SKW3 Cells Binding to ICAM IC50
From the text: as §1, §2, §3, §4, §5, §6

[5] = molecular target: T1, interaction of ICAM-1 with the Leukointegrin CD18/CD11a (LFA-1) (Homo sapiens, UniProt P05107+P20701); assay: Assay to determine inhibition of LFA-1 binding to ICAM-1 (immunopurified LFA-1 on plate-bound sICAM-1, ELISA readout); conditions: values marked e approximated from incomplete dose-response curve
T1 construct: endogenous in cells; sICAM-1: made in house, secreted from transfected CHO DUX cells
T1 sequence (P20701 26-1170): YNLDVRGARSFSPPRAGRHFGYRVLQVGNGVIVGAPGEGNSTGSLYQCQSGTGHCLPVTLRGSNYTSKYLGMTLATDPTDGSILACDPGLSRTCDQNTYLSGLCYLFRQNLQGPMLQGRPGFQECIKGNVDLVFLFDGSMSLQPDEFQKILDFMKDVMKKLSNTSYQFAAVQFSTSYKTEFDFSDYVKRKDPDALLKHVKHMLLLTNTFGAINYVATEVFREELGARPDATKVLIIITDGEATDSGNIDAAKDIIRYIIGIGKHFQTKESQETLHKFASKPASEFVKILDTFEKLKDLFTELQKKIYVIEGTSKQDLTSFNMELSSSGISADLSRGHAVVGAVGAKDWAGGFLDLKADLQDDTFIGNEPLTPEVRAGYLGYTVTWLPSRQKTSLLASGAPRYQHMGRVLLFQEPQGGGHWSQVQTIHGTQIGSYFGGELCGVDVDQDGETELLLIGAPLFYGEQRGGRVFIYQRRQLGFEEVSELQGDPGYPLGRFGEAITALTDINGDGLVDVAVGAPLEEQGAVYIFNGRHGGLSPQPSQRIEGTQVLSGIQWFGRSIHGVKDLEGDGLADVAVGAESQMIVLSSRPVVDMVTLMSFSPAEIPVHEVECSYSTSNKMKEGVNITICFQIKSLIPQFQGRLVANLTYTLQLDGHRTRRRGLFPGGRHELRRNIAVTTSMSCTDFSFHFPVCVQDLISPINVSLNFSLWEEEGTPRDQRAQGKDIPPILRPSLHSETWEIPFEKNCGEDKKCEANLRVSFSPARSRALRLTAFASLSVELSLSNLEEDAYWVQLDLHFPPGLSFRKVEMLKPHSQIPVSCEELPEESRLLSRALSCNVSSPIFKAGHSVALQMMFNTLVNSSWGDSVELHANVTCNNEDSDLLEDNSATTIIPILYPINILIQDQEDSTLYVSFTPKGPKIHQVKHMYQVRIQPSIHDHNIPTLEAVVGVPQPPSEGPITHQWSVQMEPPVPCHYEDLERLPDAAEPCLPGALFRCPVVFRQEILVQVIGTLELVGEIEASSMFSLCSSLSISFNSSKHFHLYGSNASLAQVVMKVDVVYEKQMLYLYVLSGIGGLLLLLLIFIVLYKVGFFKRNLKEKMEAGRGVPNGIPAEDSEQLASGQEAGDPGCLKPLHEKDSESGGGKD
T1 sequence (P05107 23-769): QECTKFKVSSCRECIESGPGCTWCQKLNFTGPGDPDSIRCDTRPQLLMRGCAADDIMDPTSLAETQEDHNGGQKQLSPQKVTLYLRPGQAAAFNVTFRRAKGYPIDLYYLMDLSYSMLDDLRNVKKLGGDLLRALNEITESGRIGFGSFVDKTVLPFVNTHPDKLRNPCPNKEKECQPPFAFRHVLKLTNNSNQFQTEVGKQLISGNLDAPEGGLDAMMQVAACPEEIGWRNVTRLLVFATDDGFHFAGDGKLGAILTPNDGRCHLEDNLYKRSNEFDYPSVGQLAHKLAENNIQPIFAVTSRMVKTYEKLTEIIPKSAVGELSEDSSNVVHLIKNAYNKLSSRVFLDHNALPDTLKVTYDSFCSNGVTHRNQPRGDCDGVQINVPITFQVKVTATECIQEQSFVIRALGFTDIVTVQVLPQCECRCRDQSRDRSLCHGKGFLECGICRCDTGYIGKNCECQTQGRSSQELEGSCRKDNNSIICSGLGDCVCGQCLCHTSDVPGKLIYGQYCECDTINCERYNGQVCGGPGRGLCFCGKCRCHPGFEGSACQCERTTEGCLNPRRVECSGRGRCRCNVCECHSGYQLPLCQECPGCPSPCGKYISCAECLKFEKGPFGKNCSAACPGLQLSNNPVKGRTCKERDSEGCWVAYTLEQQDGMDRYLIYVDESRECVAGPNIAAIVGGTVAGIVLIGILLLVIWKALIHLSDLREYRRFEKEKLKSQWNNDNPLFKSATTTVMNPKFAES

SMILES | IC50 [1] [nM] | IC50 [2] [nM] | Cellular Toxicity Assay MTT LD50 [3] [µM] | IC50 [4] [nM] | Kd [5] [nM] | Assay to Detect SKW3 Cells Binding to FIBRONECTIN IC50 [1]
C[C@]1(Cc2cc(Br)cc(Br)c2)NC(=O)N(c2cc(Cl)cc(Cl)c2)C1=O [Example 40] | 50000 to 100000 | 25000 | 50 to 100 | 50000 to 100000 | 480 | –
C[C@]1(Cc2ccc(Br)cc2)NC(=O)N(c2cc(Cl)c(Cl)c(Cl)c2)C1=O [Example 43] | – | 1800 | 25 to 50 | 3000 to 6000 | 170 | No inh^c
C[C@]1(Cc2ccc([N+](=O)[O-])cc2)NC(=O)N(c2cc(Cl)cc(Cl)c2)C1=O [Example 44] | – | 300 | 63 to 125 | 6000 to 12000 | 420 | No inh^c
CN1C(=S)N(c2cc(Cl)cc(Cl)c2)C(=O)C1(C)Cc1ccc(Br)cc1 (stereo not shown) [Example 80] | – | 3200 | >400 | 5000 | 190 | No inh^c
CC1(Cc2ccc(Br)cc2)NC(=O)N(c2cc(Cl)cc(Cl)c2)C1=S (stereo not shown) [Example 81] | – | 6300 | 25 to 50 | 1000 to 3000 | 80 | No inh^c
CN1C(=O)N(c2cc(Cl)cc(Cl)c2)C(=O)[C@@H]1Cc1ccccc1 [Example 87] | > 100000 | 50000 | >500 | 50000 to 100000 | 2000 | –
CCC1(Cc2ccccc2)C(=O)N(c2cc(Cl)cc(Cl)c2)C(=O)N1C (stereo not shown) [Example 93] | – | 13000 | 100 to 200 | > 100000 | 1270 | No inh^c
CCCC1(Cc2ccccc2)C(=O)N(c2cc(Cl)cc(Cl)c2)C(=O)N1C (stereo not shown) [Example 94] | – | 25000 | 200 | 50000 to 100000 | 740 | No inh^c
CCN1C(=O)N(c2cc(Cl)cc(Cl)c2)C(=O)[C@@]1(C)Cc1ccc(Br)cc1 [Example 97] | – | 2000 | >350 | 5000 to 10000 | 23 | No inh^c
CN1C(=O)N(c2cc(C(F)(F)F)cc(C(F)(F)F)c2)C(=O)[C@@]1(C)Cc1ccc(Br)cc1 [Example 100] | > 60000 | 700 | >400 | 8000 to 15000 | 190 | –
C[C@@]1(Cc2ccc(Br)cc2)C(=O)N(c2cc(Cl)cc(Cl)c2)C(=O)N1Cc1ccncc1 [Example 103] | > 25000 | 130 | 25 to 50 | 25000 | 100 | –
C[C@@]1(Cc2ccc(Br)cc2)C(=O)N(c2cc(Cl)cc(Cl)c2)C(=O)N1Cc1ccccn1 [Example 110] | – | 9000 | 200 to 400 | 25000 | 150 | No inh^c
C[C@@]1(Cc2ccc(Br)cc2)C(=O)N(c2cc(Cl)cc(Cl)c2)C(=O)N1Cc1cccnc1 [Example 111] | – | 75000 | 36 | 3000 | 190 | No inh^c
CC(=O)CN1C(=O)N(c2cc(Cl)cc(Cl)c2)C(=O)[C@@]1(C)Cc1ccc(Br)cc1 [Example 117] | 12000 | 2200 | 12 | 12000 | 1090 | –
CN1C(=O)N(c2cc(Cl)cc(Cl)c2)C(=O)[C@@]1(C)Cc1cc(Br)cc(Br)c1 [Example 118] | > 100000 | 3400 | 200 to 400 | > 100000 | 460 | –
C[C@@]1(Cc2ccc(Br)cc2)C(=O)N(c2cc(Cl)cc(Cl)c2)C(=O)N1CCCCCCl [Example 121] | – | 25000 | <11 | 800 to 2000 | 210 | No inh^c
Cc1cc(Br)cc(C)c1C[C@]1(C)C(=O)N(c2cc(Cl)cc(Cl)c2)C(=O)N1C [Example 122] | – | 1800 | 200 to 400 | 12000 to 25000 | 130 | No inh^c
CN1C(=O)N(c2cc(Cl)c(F)c(Cl)c2)C(=O)[C@@]1(C)Cc1ccc(Br)cc1 [Example 124] | – | 100 | 100 to 200 | 1500 | 30 | No inh^c
CN1C(=O)N(c2cc(Cl)cc(Cl)c2)C(=O)[C@@]1(C)Cc1ccc(C#N)cc1 [Example 127] | – | 100 | 125 to 250 | 800 to 1600 | 50 | No inh^c
CC(=O)N1C(=O)N(c2cc(Cl)cc(Cl)c2)C(=O)[C@@]1(C)Cc1ccc(C#N)cc1 [Example 128] | – | 100 | 125 to 250 | 1500 | 160 | No inh^c
